# From patent US4711889A, “Schistosomicidal acridanone hydrazones” (Hoffman-La Roche Inc., priority 1986, dated 1987)
# Where a name gives a salt, the structure may show the parent alone.
# Assay: acute toxicity, single oral administration to mice
# Conditions: mouse, in vivo
# Text: The following Table contains the results obtained with representative compounds of the invention. In the Table there are given for each of listed compounds, the VD50 in mg/kg p.o. and the LD50 in mg/kg single oral administration to mice.
row,Structure (SMILES),LD50
1,Cl.Cl.NCCn1c2ccccc2c(=NNc2nccs2)c2ccccc21 [10-(2-aminoethyl)-9-acridanone 2-thiazolylhydrazone dihydrochloride],156 to 312 mg/kg
2,c1ccc2c(c1)c(=NNc1nccs1)c1ccccc1n2CCN1CCCCC1 [10-[2-(1-piperidinyl)ethyl]-9-acridanone (2-thiazolyl)hydrazone 1.5 HCl],312 to 625 mg/kg
3,c1ccc2c(c1)c(=NN=C1NCCS1)c1ccccc1n2CCN1CCCC1 [10-[2-(1-pyrrolidinyl)ethyl]-9-acridanone (2-thiazolidinylidene)hydrazone],156 to 312 mg/kg
4,CC(=O)N1CCN(CCn2c3ccccc3c(=NN=C3NCCS3)c3ccccc32)CC1 [10-[2-(4-acetyl-1-piperazinyl)ethyl]-9-acridanone (2-thiazolidinylidene)hydrazone],1250 to 2500 mg/kg
5,CC(=O)N1CCN(CCn2c3ccccc3c(=NNc3nccs3)c3ccccc32)CC1.Cl.Cl [10-[2-(4-acetyl-1-piperazinyl)ethyl]-9-acridanone (2-thiazolyl)hydrazone dihydrochloride],312 to 625 mg/kg
6,CN1CCN(CCn2c3ccccc3c(=NN=C3NCCS3)c3ccccc32)CC1 [10-[2-(4-methyl-1-piperazinyl)ethyl]-9-acridanone (2-thiazolidinylidene)hydrazone],156 to 312 mg/kg
7,CN1CCN(CCn2c3ccccc3c(=NNc3nccs3)c3ccccc32)CC1 [10-[2-(4-methyl-1-piperazinyl)ethyl]-9-acridanone (2-thiazolyl)hydrazone. 2.5 HCl],625 to 1250 mg/kg
8,CCN(CC)CCn1c2ccccc2c(=NN=C2NCCS2)c2ccccc21 [10-[2-(diethylamino)ethyl]-9-acridanone (2-thiazolidinylidene)hydrazone],312 to 625 mg/kg
9,CCN(CC)CCn1c2ccccc2c(=NNc2nccs2)c2ccccc21.Cl.Cl [10-[2-(diethylamino)ethyl]-9-acridanone (2-thiazolyl)hydrazone dihydrochloride],> 5000 mg/kg
10,CN(C)CCn1c2ccccc2c(=NN=C2NCCS2)c2ccccc21 [10-[2-(dimethylamino)ethyl]-9-acridanone (2-thiazolidinylidene)hydrazone],250 to 500 mg/kg
11,CN(C)CCn1c2ccccc2c(=NNc2nccs2)c2ccccc21.Cl.Cl [10-[2-(dimethylamino)ethyl]-9-acridanone (2-thiazolyl)hydrazone dihydrochloride],312 to 625 mg/kg
12,CN(C)CCCn1c2ccccc2c(=NN=C2NCCS2)c2ccccc21 [10-[3-(dimethylamino)propyl]-9-acridanone (2-thiazolidinylidene)hydrazone],125 to 250 mg/kg
13,CN(C)CCCn1c2ccccc2c(=NNc2nccs2)c2ccccc21.Cl.Cl [10-[3-(dimethylamino)propyl]-9-acridanone (2-thiazolyl)hydrazone dihydrochloride],312 to 625 mg/kg
